# According to publication PMC6797804, “Histone H3K23-specific acetylation by MORF is coupled to H3K14 acylation” (Nature Communications, 2019):
# What was measured:
# MORFN complex = assay: HAT assay, WT MORFN complex overexpressed in 293T cells; type: biochemical; conditions: H3 peptides residues 1–29, 3H-Ac-CoA, pH 8, 30 min at 30 °C, CPM, n = 2
# Excerpt: (§1) The amounts of native (K562) or overexpressed (293T) MORF complexes were normalized empirically following SDS-PAGE and transfer onto nitrocellulose membrane. Anti-FLAG M2 conjugated to horseradish peroxydase (HRP; Sigma) was used at a 1:10,000 dilution and the immunoblots were visualized using a Western Lightning plus-ECL reagent (Perkin-Elmer). Anti-HA-HRP (clone 3F10, Roche) was used at a 1:2000 dilution.
# native MORF complex = assay: HAT assay, native MORF complex from K562 cells; type: biochemical, Homo sapiens; conditions: native WT MORF complex; H3 peptides residues 1–29, 3H-Ac-CoA, pH 8, 30 min at 30 °C; scintillation CPM; n = 2
# Experimental: For purification of native complexes, after large-scale expansion of K562 clones, tandem affinity purifications (TAP) of MORF and MOZ complexes were performed on nuclear extracts as previously described[43]. Briefly, nuclear extracts were prepared following standard procedures and precleared with CL6B Sepharose beads.
# as §1
# MORFN F287A complex = assay: HAT assay, MORFN F287A complex overexpressed in 293T cells; type: biochemical; conditions: H3K23ac peptide residues 1–29, 3H-Ac-CoA, pH 8, 30 min at 30 °C, CPM, n = 2
# Experimental: Cells were harvested 48 h post-co-transfection and lysed in high-salt buffer (450 mM NaCl, 50 mM Tris-HCl (pH 8.0), 1% TX-100, 2 mM MgCl2, 0.1 mM ZnCl2, 2 mM EDTA, 10% glycerol) supplemented with protease inhibitor mixture. The NaCl concentration was reduced to 225 mM and the whole cell extract centrifuged at 14,000 rpm for 30 min. […] FLAG beads were next washed with the 225 mM NaCl buffer and eluted with 200 μg/ml of 3× FLAG peptide (Sigma).
# In Fig. 4e and Supplementary Fig. 7, FLAG-tagged MORF proteins were overexpressed and prepared from transiently transfected 293T cells. Briefly, approximately 2 mg of total cell extract was incubated with 25 μl of M2-agarose beads (Sigma) overnight at 4 °C. […]
# Acetyltransferase activity of the purified complexes was measured with 0.125 µCi of ^3H labeled Ac-CoA (2.1 Ci/mmol; PerkinElmer Life Sciences). […] The reactions were then captured on P81 filter paper, the free H3-labeled Ac-CoA was washed away and the paper was analyzed using Liquid Scintillation. […]
# In Fig. 4e and Supplementary Fig. 7, purified MORF proteins were incubated at 37 °C for indicated times with peptides (1 μg) and 0.1 mM acetyl-CoA in HAT reaction buffer (50 mM Tris, pH 8.0, 0.1 mM EDTA, 10% glycerol, 1 mM PMSF, and 1 mM DTT) in a total volume of 50 μL. Reactions were quenched by flash-freezing in liquid nitrogen and then analyzed by SDS-PAGE and Western blot.
substance,measurement,setting,value
H3K23ac: H3 peptide (residues 1–29) pre-acetylated at Lys23,decrease in HAT activity relative to unmodified H3 peptide,MORFN complex; WT MORFN complex (293T),~ 7 fold
same,"HAT activity of MORFN complex, in words",MORFN complex; WT MORFN complex,substantially reduced residual enzymatic activity
same,decrease in HAT activity relative to unmodified H3 peptide,native MORF complex,~ 12 fold
same,"HAT activity of MORFN F287A complex, in words",MORFN F287A complex,substantially reduced residual enzymatic activity
